Measured values as given in US20220249586A1, “HEMP EXTRACT AND METHODS OF USE THEREOF” (ElleVet Sciences, priority 2019, published 2022).
Several values for one entry are separate records, joined by “and”; a condition that tells them apart may be missing. Equal values may be shown once.

Assays:
[1] = Feline pharmacokinetics (cannabidiol in serum by LC-MS/MS); format: in vivo, cat; set-up: AUC 0 −> t: concentration or dose not given beside the values
Description: On the first day of dosing, blood was collected for a PK analysis from 6 of the 8 cats. The most cooperative cats were selected for the PK analysis. […] Samples were placed into a red top clotting tube with no serum separator. […] The harvested serum was placed in cyrovials stored at −70° C. Each tube was labeled with the cat id, date of collection and collection time point. Samples were shipped overnight on dry ice to the Proteomics & Metabolomics Facility at Colorado State University.
200 μL of cold (−20 C) 100% Acetonitrile (spiked with 60 ng/mL of d3-CBD) was added to each sample and vortexed at room temperature for 5 minutes. 200 μL of water was added and vortexed for an additional 5 minutes. 1 ml of 100% hexane was then added to each sample and vortexed for a final 5 minutes. […] The upper hexane layer was transferred to new-labeled glass vials (˜900 uL per sample), carefully avoiding the middle and lower layers.
An 8 point standard curve of CBD was generated in matrix background using a blank serum. Concentrations ranged from 0 ng/mL 1000 ng/mL (3.2× dilution series). 50 uL of each spiked serum sample was extracted as above.
LC-MS/MS was performed on a Waters Acquity M-Class UPLC coupled to a Waters Xevo TQ-S triple quadrupole mass spectrometer. […] Flow rate was 3.0 μL/min and injection volume was 2.0 μL. […]
Each target analyte was visually inspected for retention time and peak area integration. Peak areas were extracted for target compounds detected in biological samples and normalized to the peak area of the appropriate internal standard in each sample using in-house R Script (TQS-tools). CBD concentrations were calculated in nanograms per milliliter of extract (0.06 mL) and then back calculated to nanograms per mL of serum (0.05 mL of serum).
LOD are calculated based on the standard deviation of the response (Sy) of the 0 point calibration standard (i.e., 0 ng/mL CBD as an estimate on noise) and the slope of the calibration curve (S) at levels approximating the LOD according to the formula: LOD=^3*(Sy/S). […]

[2] = Single-dose oral pharmacokinetics of CBD oil in beagles (serum CBD by LC-MS); format: in vivo; settings: male, beagle, dog, median of 4 dogs, read-out: T½ elim (converted)
Description: An initial investigation into single-dose oral pharmacokinetics was performed with 4 beagles (3.5-7 years, male castrated, 10.7-11.9 kg). Each dog received a 2 mg/kg and an 8 mg/kg oral dosage of CBD oil, with a 2-week washout period between each experiment. The dogs were fed two hours after dosing. Physical examination was performed at 0, 4, 8 and 24 hours after dosing. Attitude, behavior, proprioception, and gait were subjectively evaluated at each time point during free running/walking and navigation around standard traffic cones (weaving). Five ml of blood was collected at time 0, 0.5, 1, 2, 4, 8, 12 and 24 hours after oil administration. Blood samples were obtained via jugular venipuncture and transferred to a coagulation tube for 20 minutes. […]
From the UHPLC-QQQ-MS data, peak areas were extracted for CBD detected in biological samples and normalized to the peak area of the internal standard CBD-d3, in each sample using Skyline as well as an in-house R Script (www.r-project.org). CBD concentrations were calculated to nanograms per mL of serum as determined by the line of regression of the standard curve (r2=0.9994, 0-1000 ng/mL). For this assay, the limits of detection (LOD) and limits of quantification (LOQ) represent the lower limits of detection and quantification for each compound in the matrix of this study. […]

With `C=C(C)[C@@H]1CCC(C)=C[C@H]1c1c(O)cc(CCCCC)cc1O` [Cannabidiol, cannabidiol] as the molecule, how does the “AUC 0 −> t” value ([1]; individual cats, 0 time to last collection [24 hr]) read?
The value was 265.0 ng·h/mL and 54.2 ng·h/mL and 42.4 ng·h/mL and 212.2 ng·h/mL and 125.0 ng·h/mL and 134.2 ng·h/mL and 60.2 ng·h/mL.

What about the Cmax ([1]; serum, po, 2 mg/kg) of the same molecule?
The Cmax was 47.6 ng/mL.

What about the half-life ([1]; serum, po, 2 mg/kg, individual cats, oral 2/mg/kg cannabidiol in capsule form, read-out: T½ el (converted)) of the same molecule?
The half-life was 1.2 h.

And the half-life ([2]; 2 mg/kg single oral dose)?
Its half-life is 4.2 h.

And the half-life ([2]; 8 mg/kg single oral dose)?
Its half-life is 4.2 h.
